Literature values in patent publication US10064816B2, “Treatment of sexual dysfunction” (ReJoy, priority 2015, dated 2018).

Tested on: arrector pili muscle
Details: 1% w/v, iontophoresis

In the case of `CNC[C@H](O)c1cccc(O)c1` [phenylephrine], the “piloerection on the forearm” value is given as “can activate the piloerection”.
